Data on 1 compound can be found in BindingDB's records for PubMed 11160654 (Kitasato University, 2001).

The experiment deals with Glutamate receptor 3 (Rattus norvegicus, UniProt P19492).
Glutamate receptor 3, sequence (P19492 whole entry): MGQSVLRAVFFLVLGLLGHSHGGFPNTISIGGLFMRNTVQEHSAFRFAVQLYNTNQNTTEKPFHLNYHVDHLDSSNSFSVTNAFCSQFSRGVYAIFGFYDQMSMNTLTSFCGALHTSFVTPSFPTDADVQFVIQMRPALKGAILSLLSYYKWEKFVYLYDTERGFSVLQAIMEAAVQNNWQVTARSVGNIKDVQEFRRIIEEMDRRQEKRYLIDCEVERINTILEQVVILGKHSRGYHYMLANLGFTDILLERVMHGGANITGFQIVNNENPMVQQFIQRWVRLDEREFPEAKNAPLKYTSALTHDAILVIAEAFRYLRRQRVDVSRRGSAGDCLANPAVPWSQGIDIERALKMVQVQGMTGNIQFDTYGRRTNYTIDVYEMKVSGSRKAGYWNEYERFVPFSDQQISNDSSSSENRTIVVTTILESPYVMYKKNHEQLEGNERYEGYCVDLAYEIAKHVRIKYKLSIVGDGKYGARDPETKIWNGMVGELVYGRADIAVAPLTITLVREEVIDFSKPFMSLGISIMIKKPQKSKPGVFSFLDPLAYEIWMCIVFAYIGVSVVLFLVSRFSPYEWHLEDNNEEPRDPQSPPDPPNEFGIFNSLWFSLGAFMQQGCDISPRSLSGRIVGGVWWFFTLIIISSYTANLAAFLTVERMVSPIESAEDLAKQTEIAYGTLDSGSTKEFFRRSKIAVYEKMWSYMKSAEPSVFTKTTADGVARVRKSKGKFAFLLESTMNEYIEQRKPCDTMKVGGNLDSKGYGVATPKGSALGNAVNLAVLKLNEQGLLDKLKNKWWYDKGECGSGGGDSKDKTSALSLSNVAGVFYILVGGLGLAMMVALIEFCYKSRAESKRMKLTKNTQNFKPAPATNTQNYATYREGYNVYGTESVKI

By Ki is commonly meant the equilibrium dissociation constant of an inhibitor or competing ligand from its target. Regarding `CN[C@H](CC(=O)O)C(=O)O` [NMDA], the Ki worked out at 3.9 µM.
